pKi: −log10 of the molar value.
target: cGMP-inhibited 3',5'-cyclic phosphodiesterase 3B (Homo sapiens, UniProt Q13370); assay: Inhibition of PDE3B
Sequence (Q13370 whole entry): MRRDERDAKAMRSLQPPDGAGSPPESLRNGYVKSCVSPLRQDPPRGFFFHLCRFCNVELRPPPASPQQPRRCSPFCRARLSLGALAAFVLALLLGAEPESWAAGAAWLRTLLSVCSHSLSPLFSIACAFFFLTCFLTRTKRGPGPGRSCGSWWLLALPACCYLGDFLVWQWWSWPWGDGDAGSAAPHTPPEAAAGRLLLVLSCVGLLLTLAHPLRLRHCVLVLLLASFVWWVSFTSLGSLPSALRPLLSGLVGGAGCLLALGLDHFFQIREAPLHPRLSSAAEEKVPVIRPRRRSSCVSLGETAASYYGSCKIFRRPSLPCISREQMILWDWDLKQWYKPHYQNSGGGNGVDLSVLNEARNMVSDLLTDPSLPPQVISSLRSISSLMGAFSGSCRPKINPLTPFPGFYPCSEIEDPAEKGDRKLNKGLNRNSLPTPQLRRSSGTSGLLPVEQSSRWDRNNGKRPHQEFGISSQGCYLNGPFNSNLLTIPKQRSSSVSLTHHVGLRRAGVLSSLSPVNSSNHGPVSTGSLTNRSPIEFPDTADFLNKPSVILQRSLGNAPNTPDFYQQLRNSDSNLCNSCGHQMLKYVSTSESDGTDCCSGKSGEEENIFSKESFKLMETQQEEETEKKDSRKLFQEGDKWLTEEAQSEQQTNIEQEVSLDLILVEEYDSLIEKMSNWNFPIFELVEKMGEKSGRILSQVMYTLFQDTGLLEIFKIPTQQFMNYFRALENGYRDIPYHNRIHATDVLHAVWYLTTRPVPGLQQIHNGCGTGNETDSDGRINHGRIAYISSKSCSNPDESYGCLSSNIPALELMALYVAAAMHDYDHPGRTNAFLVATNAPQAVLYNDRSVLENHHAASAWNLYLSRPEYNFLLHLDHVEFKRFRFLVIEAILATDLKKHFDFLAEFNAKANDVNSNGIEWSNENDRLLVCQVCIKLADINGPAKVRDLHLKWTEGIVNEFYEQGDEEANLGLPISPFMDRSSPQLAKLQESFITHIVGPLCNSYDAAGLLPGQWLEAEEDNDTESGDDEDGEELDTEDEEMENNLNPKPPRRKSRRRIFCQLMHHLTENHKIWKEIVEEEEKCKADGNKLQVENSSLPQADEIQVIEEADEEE

`COc1cc2ncnc(N3CC[C@@H](Oc4cccc(C(C)C)c4)C3)c2cc1OC` was tested. Which pKi did it give?
The pKi was 6.32.

`COc1cc2ncnc(N3CC[C@@H](Oc4ccc(OC(F)(F)F)cc4)C3)c2cc1OC` was tested. Which pKi did it give?
Its pKi is 5.74.

target: cAMP and cAMP-inhibited cGMP 3',5'-cyclic phosphodiesterase 10A (Homo sapiens, UniProt Q9Y233); assay: Inhibition of PDE10A
Sequence (Q9Y233 whole entry): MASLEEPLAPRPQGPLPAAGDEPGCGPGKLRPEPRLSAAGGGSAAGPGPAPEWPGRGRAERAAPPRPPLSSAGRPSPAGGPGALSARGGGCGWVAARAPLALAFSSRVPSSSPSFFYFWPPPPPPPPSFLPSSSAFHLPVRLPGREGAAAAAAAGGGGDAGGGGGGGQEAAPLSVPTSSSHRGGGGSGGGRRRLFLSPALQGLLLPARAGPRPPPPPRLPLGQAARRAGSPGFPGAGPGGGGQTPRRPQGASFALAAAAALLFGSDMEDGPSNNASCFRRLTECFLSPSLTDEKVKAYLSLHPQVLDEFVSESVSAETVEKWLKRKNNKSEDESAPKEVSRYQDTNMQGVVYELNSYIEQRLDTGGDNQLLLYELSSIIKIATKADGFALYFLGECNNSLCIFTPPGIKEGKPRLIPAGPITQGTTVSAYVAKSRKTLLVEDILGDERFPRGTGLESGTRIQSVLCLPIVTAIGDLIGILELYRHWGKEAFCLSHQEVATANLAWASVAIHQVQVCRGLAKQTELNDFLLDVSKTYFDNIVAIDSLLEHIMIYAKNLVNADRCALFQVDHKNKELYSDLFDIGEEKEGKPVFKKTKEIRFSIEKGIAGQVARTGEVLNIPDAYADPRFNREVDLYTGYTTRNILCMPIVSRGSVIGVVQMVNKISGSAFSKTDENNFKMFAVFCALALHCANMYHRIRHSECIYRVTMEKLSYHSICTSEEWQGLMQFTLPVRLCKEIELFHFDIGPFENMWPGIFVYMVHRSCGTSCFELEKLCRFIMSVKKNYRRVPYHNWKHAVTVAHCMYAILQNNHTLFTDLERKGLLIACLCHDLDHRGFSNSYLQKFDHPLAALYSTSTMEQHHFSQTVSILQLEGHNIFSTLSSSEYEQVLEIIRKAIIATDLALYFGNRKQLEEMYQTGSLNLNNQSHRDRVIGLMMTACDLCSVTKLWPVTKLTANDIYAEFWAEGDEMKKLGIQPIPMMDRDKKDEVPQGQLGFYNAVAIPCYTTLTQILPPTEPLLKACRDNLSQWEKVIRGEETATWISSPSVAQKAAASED

`COc1cc2ncnc(N3CC[C@@H](Oc4ccc(C(C)(C)C)cc4)C3)c2cc1OC` was tested. Which pKi did it give?
Its pKi is 7.00.

`COc1cc2ncnc(N3CC[C@@H](Oc4ncc(Cl)cn4)C3)c2cc1OC` was tested. Which pKi did it give?
The pKi was 7.36.

With `CCOc1ccc(O[C@@H]2CCN(c3ncnc4cc(OC)c(OC)cc34)C2)cc1` as the molecule, how does the pKi read?
Its pKi is 7.27.

`CCOc1cccc(O[C@@H]2CCN(c3ncnc4cc(OC)c(OC)cc34)C2)c1` was tested. Which pKi did it give?
The pKi was 7.03.

`COc1cc2ncnc(N3CC[C@@H](Oc4cc5ccccc5cn4)C3)c2cc1OC` was tested. Which pKi did it give?
The pKi was 7.72.

How did the pKi turn out when `COc1cc2ncnc(N3CC[C@@H](Oc4cccc(-c5ccccc5)c4)C3)c2cc1OC` was run?
The pKi was 6.87.

With `COc1cc2ncnc(N3CC[C@@H](Oc4ccc5nc(C)ccc5c4)C3)c2cc1OC` as the molecule, how does the pKi read?
The pKi was 7.74.

With `COc1cc2ncnc(N3CC[C@@H](Oc4ccccc4C)C3)c2cc1OC` as the molecule, how does the pKi read?
Its pKi is 6.49.

With `COc1cc2ncnc(N3CC[C@@H](Oc4cccc5ccccc45)C3)c2cc1OC` as the molecule, how does the pKi read?
The pKi was 6.68.

`COc1cc2ncnc(N3CC[C@@H](Oc4ccncc4)C3)c2cc1OC` was tested. Which pKi did it give?
Its pKi is 6.95.

How did the pKi turn out when `COc1cc2ncnc(N3CC[C@@H](Oc4cccnc4)C3)c2cc1OC` was run?
The pKi was 6.89.

How did the pKi turn out when `COc1cc2ncnc(N3CC[C@@H](Oc4ccccc4C#N)C3)c2cc1OC` was run?
Its pKi is 6.89.

`COc1cc2ncnc(N3CC[C@@H](Oc4cccc(C(C)C)c4)C3)c2cc1OC` was tested. Which pKi did it give?
Its pKi is 6.77.

`COc1cc2ncnc(N3CC[C@@H](Oc4ccc5c(c4)CCC5)C3)c2cc1OC` was tested. Which pKi did it give?
The pKi was 7.17.

With `COc1cc2ncnc(N3CC[C@@H](Oc4ccccc4Cl)C3)c2cc1OC` as the molecule, how does the pKi read?
Its pKi is 6.70.

`COc1cc2ncnc(N3CC[C@@H](Oc4ccc5ncccc5c4)C3)c2cc1OC` was tested. Which pKi did it give?
Its pKi is 7.92.

With `COc1ccc2ccc(O[C@@H]3CCN(c4ncnc5cc(OC)c(OC)cc45)C3)cc2c1` as the molecule, how does the pKi read?
The pKi was 7.77.

With `COc1cc2ncnc(N3CC[C@@H](Oc4ccc5cccnc5c4)C3)c2cc1OC` as the molecule, how does the pKi read?
The pKi was 7.92.

With `COc1cc2ncnc(N3CC[C@@H](Oc4ccccn4)C3)c2cc1OC` as the molecule, how does the pKi read?
Its pKi is 6.91.

With `COc1ccc(O[C@@H]2CCN(c3ncnc4cc(OC)c(OC)cc34)C2)cc1OC` as the molecule, how does the pKi read?
Its pKi is 7.17.

How did the pKi turn out when `COc1cc2ncnc(N3CC[C@@H](Oc4ccccc4OC)C3)c2cc1OC` was run?
The pKi was 6.62.

With `COc1ccc2cc(O[C@@H]3CCN(c4ncnc5cc(OC)c(OC)cc45)C3)ccc2c1` as the molecule, how does the pKi read?
The pKi was 7.74.

`COc1cc2ncnc(N3CC[C@@H](Oc4ccccc4C(F)(F)F)C3)c2cc1OC` was tested. Which pKi did it give?
Its pKi is 6.09.

How did the pKi turn out when `COc1cc2ncnc(N3CC[C@@H](Oc4ccc(OC(F)(F)F)cc4)C3)c2cc1OC` was run?
Its pKi is 6.73.

target: cGMP-inhibited 3',5'-cyclic phosphodiesterase 3A (Homo sapiens, UniProt Q14432); assay: Inhibition of PDE3A
Sequence (Q14432 whole entry): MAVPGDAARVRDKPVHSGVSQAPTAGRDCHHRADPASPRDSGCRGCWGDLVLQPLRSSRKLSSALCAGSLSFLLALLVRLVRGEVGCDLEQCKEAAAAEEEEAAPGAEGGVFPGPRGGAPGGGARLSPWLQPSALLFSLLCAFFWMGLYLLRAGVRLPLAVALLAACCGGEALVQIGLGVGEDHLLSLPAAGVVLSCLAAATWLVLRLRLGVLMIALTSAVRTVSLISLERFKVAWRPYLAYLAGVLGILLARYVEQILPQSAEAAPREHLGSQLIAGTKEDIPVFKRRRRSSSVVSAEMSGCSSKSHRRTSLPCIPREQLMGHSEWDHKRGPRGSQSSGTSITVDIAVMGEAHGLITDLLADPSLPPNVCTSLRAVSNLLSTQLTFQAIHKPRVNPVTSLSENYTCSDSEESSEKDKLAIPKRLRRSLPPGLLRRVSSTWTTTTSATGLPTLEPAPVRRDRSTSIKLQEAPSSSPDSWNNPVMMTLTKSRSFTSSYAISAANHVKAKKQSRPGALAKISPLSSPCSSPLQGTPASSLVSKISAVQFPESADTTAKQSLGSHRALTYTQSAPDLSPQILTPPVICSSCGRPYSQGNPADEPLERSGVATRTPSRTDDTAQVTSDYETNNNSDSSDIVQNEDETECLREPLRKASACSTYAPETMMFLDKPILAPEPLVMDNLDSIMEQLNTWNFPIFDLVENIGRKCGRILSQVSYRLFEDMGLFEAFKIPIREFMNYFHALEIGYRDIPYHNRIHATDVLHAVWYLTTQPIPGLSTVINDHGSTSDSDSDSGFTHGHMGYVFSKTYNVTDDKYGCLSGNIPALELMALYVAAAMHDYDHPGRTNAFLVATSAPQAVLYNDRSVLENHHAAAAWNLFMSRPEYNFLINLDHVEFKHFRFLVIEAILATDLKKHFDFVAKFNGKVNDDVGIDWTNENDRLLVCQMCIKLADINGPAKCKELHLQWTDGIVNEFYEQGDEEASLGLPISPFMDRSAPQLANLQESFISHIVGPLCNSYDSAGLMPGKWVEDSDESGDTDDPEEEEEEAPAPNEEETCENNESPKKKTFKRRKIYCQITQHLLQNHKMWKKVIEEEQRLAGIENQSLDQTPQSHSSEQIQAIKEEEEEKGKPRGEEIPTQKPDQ

`COc1cc2ncnc(N3CC[C@@H](Oc4cccc(C(C)C)c4)C3)c2cc1OC` was tested. Which pKi did it give?
Its pKi is 6.43.

With `COc1cc2ncnc(N3CC[C@@H](Oc4ccc(OC(F)(F)F)cc4)C3)c2cc1OC` as the molecule, how does the pKi read?
Its pKi is 6.13.

— ChEMBL document CHEMBL1142418, “CoMFA and HQSAR studies on 6,7-dimethoxy-4-pyrrolidylquinazoline derivatives as phosphodiesterase10A inhibitors” (Bioorg Med Chem, 2008)
